Here are results for four compounds from patent US20090286695A1, “LUMINESCENT STEM CELLS AND USES THEREOF” (AXXAM S.P.A., priority 2006, published 2009).

Holding throughout (assay type): cell-based, mouse
Experiment [1] has as its system Voltage-gated Calcium Channels. The experiment can be described thus: CCD camera-based luminometer test on neurons differentiated from P19/mito c-Photina/1A1 clone. The conditions noted are these: 40 mM; differentiation day 8 and 11; 384 MTP; tyrode as control; FIG. 21. How it is done: At day 8 and day 11 of the neuronal differentiation protocol (respectively 4 and 7 days after seeding in poly D-lysine coated 384 MTP), neurons differentiated from P19/mito c-Photina®/1A1 clone were incubated with 25 μl/well of 10 μM coelenterazine in standard tyrode buffer, for 4 hrs at 37° C.
Response to a depolarizing stimulus induced by injection of 40 mM KCl was recorded at CCD camera-based luminometer (conditions: high sensitivity, reading time 60 seconds).
The functionality of these cells was also investigated at CCD camera-based luminometer. At differentiation day 8 and 11 (respectively 4 and 7 days after disaggregation of Embryoid Bodies and seeding on poly D-lysine in 384 MTP), the cells were incubated for 4 h with a tyrode solution containing 10 μM coelenterazine.

For experiment [2], the system named is neurons differentiated from P19/mito c-Photina/1A1 clone. The experiment can be described thus: FLIPR384 Fluo-4 NW test on neurons differentiated from P19/mito c-Photina/1A1 clone. The conditions noted are these: 40 mM, differentiation day 8, FIG. 22. How it is done: 12.5 μl/well of 120 mM KCl (3×) solution was injected, and the fluorescence signal was recorded for 360 sec and expressed as RFU (Relative Fluorescence Units).
At differentiation day 8 the same cells were analyzed also at FLIPR^384 incubating the cells with FLUO-4 NW® and injecting 40 mM KCl depolarizing agent.

For experiment [3], the system named is Metabotropic or Ionotropic Glutamate Receptors. The experiment can be described thus: FLIPR384 Fluo-4 NW calcium test on undifferentiated and neuron-differentiated P19/mito c-Photina/1A1 clone. The conditions noted are these: 100 μM final; undifferentiated cells vs day 8 neurons; FIG. 23.
For a further experiment, the system named is α1-Adrenergic Receptor. The experiment can be described thus: CCD camera-based luminescent functional test on cardiomyocytes differentiated from ES/mito c-Photina/29 clone. The conditions noted are these: 100 μM; 20,000 c/w in 96 MTP; 10 μM coelenterazine; high sens., 60 sec; FIG. 8A.
Experiment [4] concerns GqPCR Endothelin Receptors. Described as above. The conditions noted are these: 50 nM; 20,000 c/w in 96 MTP; 10 μM coelenterazine; high sens., 60 sec; FIG. 8A. How it is done: CCD-Camera Based Luminometer Measurements with Cardiomyocytes • EBs were dissociated at differentiation day 9 with Accutase™ (Chemicon, Cat. N. SCR005), counted and incubated (20000 cells/well in a 96 MTP) in 10 μM coelenterazine in standard tyrode buffer (for the test on GqPCRs) and in tyrode without KCl (for the test on L-type Calcium Channels) for 3 hrs at 37° C. • The tests were run 3 h after cell seeding. • The responses to 50 nM Endothelin-1, 100 μM Noraepinephrine were measured at the CCD camera-based luminometer (conditions: high sensitivity, reading time 60 seconds). • The Voltage gated Calcium Channels were stimulated with 40 mM KCl. The specificity of the channels was checked incubating the cells 15 minutes before he measurement with 5 μM Nifedipine (a specific L-type Voltage-gated Calcium Channel inhibitor) (SIGMA, Cat. N. N7634). • Residual total photoprotein activity was measured after Triton X-100 cell lysis at the CCD camera-based luminometer (conditions: high sensitivity, for 30 seconds). Neuronal Differentiation Protocol with the Embryoid Bodies (EBs) Formation Step
Preliminary functional tests were performed at the CCD camera-based luminometer instrument after Embryoid Bodies disaggregation with Accutase® buffer and resuspension in 10 μM coelenterazine tyrode buffer. The cells were counted and seeded at a cellular concentration of 20,000 c/w in a 96 MTP. […]

In the case of `[Cl-].[K+]` [KCl], in experiment [1], the “luminescence response to depolarizing stimulus” value was “optimal responses”. Also, in experiment [2], the “fluorescence signal (calcium entry) after depolarizing agent” value was “sensible increase of the signal”. On to `N[C@@H](CCC(=O)O)C(=O)O` [Glutamate], for which the “fluorescence signal after stimulation, undifferentiated vs differentiated cells” value in experiment [3] is on record as “much higher in the differentiated cells than in the undifferentiated ones”. In the case of `NC[C@H](O)c1ccc(O)c(O)c1` [Norephinephrine], the “luminescence response (calcium) to agonist” value in the experiment on α1-Adrenergic Receptor is reported as “strong”. For Endothelin-1, the “luminescence response (calcium) to agonist” value in experiment [4] is recorded as “strong”.
